According to patent US12214058B2, “Imaging methods using deuterated compounds” (Genentech, Inc., priority 2014, dated 2025):

Key:
[1] = Microsomal stability assay, rhesus liver microsomes; assay type: in vitro ADME
Procedure: Microsomal stability assays The tracer [^18F][A]-d2 or [^18F][A] was dissolved in potassium phosphate (Kpi) buffer (100 mM) at concentration 500-600 μCi/mL. The non-radioactive 7 and 10 were dissolved in Kpi buffer at 10 μM concentration. The reaction vessel was charged with human or mouse liver microsome suspension (12.5 μL, 20 mg/mL) followed by Kpi buffer (388 μL, 10 mM), NADPH (50 μL, 10 mM) and incubated at 37° C. for 5-10 min. A solution of the radioactive [^18F][A]-d2 or [^18F][A] (50 μL, […]) or non-radioactive 7 or 8 (50 μL, 10 μM) were added to the reaction vessel and the mixture was incubated at 37° C. Aliquots (50 μL) of the reaction mixture were taken at 5, 15 and 45 minutes post addition of the tested compound, mixed with ice-cold acetonitrile (100 μL) and centrifuged. The supernatant was analyzed by LCMS (System E). The radiolabeled tracers [^18F][A] and [^18F][A]-d2 (n=3) were incubated with human, rhesus or mouse liver microsome suspension with or without NADPH at 37° C. and the mixture was analyzed for a presence of radioactive metabolites at 5, 15 and 45 min. In the presence of mouse and rhesus liver microsomes, both the [^18F][A] and [^18F][A]-d2 metabolized rapidly to ^18F-fluoride (retention time (rt)=0.38 min), and two radioactive metabolites M2 and M1 (rt=1.2 and 1.4 min). […]

tau = experiment: Human PET imaging with [18F][A]-d2 (SUVR); assay type: in vivo; conditions: for SUVR Frontal lobe / SUVR Occipital lobe / SUVR Parietal lobe / SUVR Temporal lobe / SUVR White matter: cerebellum gray as reference
Source text: A total of 5 subjects, 3 Alzheimer's disease (AD) patients and 2 healthy volunteers (HV) was used in this study. This study protocol required each subject to complete the following components: screening evaluation, MRI, [^18F]florbetapir (AD subjects only) and [^18F][A]-d2. The screening procedures included neuropsychological assessment, vital signs, ECG, physical exam, MRI, and [^18F]florbetapir PET imaging to confirm presence of amyloid deposition in patients clinically diagnosed with probable AD. In addition, each subject completed clinical assessments and clinical safety labs to ensure the subject was medically stable to complete the study protocol. The screening procedures occurred within 30 days prior to [^18F][A]-d2 imaging. Eligible subjects participated in a single [^18F][A]-d2 imaging session. The distribution of tau binding was assessed in each of the subject groups (AD and HV) to evaluate for binding to tau. For each AD subject, the distribution of Aβ and tau was compared. Tau binding in brain was assessed with PET using [^18F][A]-d2. Radioligand binding was compared in brains of HV subjects who should have minimal to negligible concentrations of tau compared to patients with AD, who are expected to have moderate to high densities of tau.
All subjects received a single injection of [^18F][A]-d2. Subjects received a bolus intravenous injection of no more than 370 MBq (˜10 mCi).
Images were acquired using a HR+ PET camera in three-dimensional mode and were reconstructed using an iterative algorithm including scatter and measured attenuation correction (^68Ge source). Dynamic images were acquired upon injection (˜370 MBq). The scanning protocol consisted of 2 scanning segments in the two healthy control (HC) subjects, Subjects 1 & 2 (0-120 min and ˜150-180 min) and of 3 segments in the suspected AD patient, Subject 3 (0-60 min, 93-123 min and 147-177 min).
The MR volumetric image, a summed image of the first 15 min after tracer administration of [^18F][A]-d2 were coregistered using Statistical Parametic Mapping SPM8 (software provided by members and collaborators of the Wellcome Trust Centre for Neuroimaging). Alignment of the additional PET segments to the first PET segment was performed using in-house developed analysis software written in Matlab® (version 8 Release 2014a). Then, using the MRI scan for anatomical delineation, irregular regions of interest (ROI) were drawn for each subject in the frontal, parietal, occipital, and temporal lobes, cerebellum gray, and white-matter (centrum semi-ovale) using MIM® software.
[^18F][A]-d2 tissue time activity curves (TAC) were expressed in SUV (Standardized Uptake Value) using each subject's weight and the corresponding tracer injected dose: TAC(SUV)=TAC(Bq/cm^3)×1000 cm^3/kg×Subject's weight(kg)/Injected dose(Bq). TAC creation and all subsequent analyses were performed using in-house developed analysis software written in Matlab®.
The ratio to cerebellum gray or standardized uptake value ratio (SUVR) was calculated. […] A clear separation of the curves is observed as early as 30 min post injection. The SUVR curves in the two healthy controls remained relatively constant soon after injection. The SUVR in the AD subject reached a plateau in the 90-120 min interval.

[2] = 40-60 min interval, Subject 1 (HC)
[3] = 40-60 min interval, Subject 2 (HC)
[4] = 40-60 min interval, Subject 3 (AD)
[5] = 90-120 min interval, Subject 1 (HC)
[6] = 90-120 min interval, Subject 2 (HC)
[7] = 90-120 min interval, Subject 3 (AD)

For `[2H]C([2H])([18F])CC1CCN(c2ccn3c(n2)nc2ccccc23)CC1` [[^18F][A]-d2, 1,1-dideutero-2-(1-(benzo[4,5]imidazo[1,2-a]pyrimidine-2-yl)piperidin-4-yl)-1-[^18F]fluoroethane], the “stability of parent compound compared with mouse liver microsomes” value [1] was “slightly more stable”, the “SUVR Frontal lobe” value (tau; [2]) was 1.08 and the “SUVR Occipital lobe” value (tau; [2]) was 1.15. For the same compound, the “SUVR Parietal lobe” value (tau; [2]) was 1.09, the “SUVR Temporal lobe” value (tau; [2]) was 1.14 and the “SUVR White matter” value (tau; [2]) was 0.85. For the same compound, the “SUVR Frontal lobe” value (tau; [3]) was 1.12, the “SUVR Occipital lobe” value (tau; [3]) was 1.19 and the “SUVR Parietal lobe” value (tau; [3]) was 1.13. The “SUVR Temporal lobe” value (tau; [3]) was 1.18, the “SUVR White matter” value (tau; [3]) was 0.80 and the “SUVR Frontal lobe” value (tau; [4]) was 1.16. For the same compound, the “SUVR Occipital lobe” value (tau; [4]) was 1.60, the “SUVR Parietal lobe” value (tau; [4]) was 1.35 and the “SUVR Temporal lobe” value (tau; [4]) was 1.82. For the same compound, the “SUVR White matter” value (tau; [4]) was 0.88, the “SUVR Frontal lobe” value (tau; [5]) was 1.07 and the “SUVR Occipital lobe” value (tau; [5]) was 1.19. The “SUVR Parietal lobe” value (tau; [5]) was 1.07, the “SUVR Temporal lobe” value (tau; [5]) was 1.13 and the “SUVR White matter” value (tau; [5]) was 0.76. The “SUVR Frontal lobe” value (tau; [6]) was 1.17, the “SUVR Occipital lobe” value (tau; [6]) was 1.21 and the “SUVR Parietal lobe” value (tau; [6]) was 1.07. For the same compound, the “SUVR Temporal lobe” value (tau; [6]) was 1.18, the “SUVR White matter” value (tau; [6]) was 0.66 and the “SUVR Frontal lobe” value (tau; [7]) was 1.25. The “SUVR Occipital lobe” value (tau; [7]) was 1.87, the “SUVR Parietal lobe” value (tau; [7]) was 1.52 and the “SUVR Temporal lobe” value (tau; [7]) was 2.25. For the same compound, the “SUVR White matter” value (tau; [7]) was 0.81 and the “radioactivity uptake in bone tissue” value (tau; Subjects 1-3, human PET images) was “no radioactivity uptake in bone tissue”.
